In patent US8637499B2, “Benzoxazepines as inhibitors of PI3K/mTOR and methods of their use and manufacture” (Exelixis, Inc., priority 2009, dated 2014):

Tests used:
[1] = target: mTORC1 (mTOR/GbL/Raptor) (Homo sapiens, UniProt P42345); assay: mTOR/GbL/Raptor (mTORC1) ELISA Assay; type: biochemical; settings: 0.2 nM mTORC1, 10 μM ATP, 50 nM NHis-tagged 4E-BP1; phosphorylation of 4E-BP1; read-out: IC50
Procedure: mTOR/GbL/Raptor (mTORC1) ELISA Assay
The measurement of mTORC1 enzyme activity was performed in an ELISA assay format following the phosphorylation of 4E-BP1 protein. All experiments were performed in the 384-well format. Generally, 0.5 μL DMSO containing varying concentrations of the test compound was mixed with 15 μL enzyme solution. Kinase reactions were initiated with the addition of 15 μL of substrates-containing solution. The assay conditions were as follows; 0.2 nM mTORC1, 10 μM ATP and 50 nM NHis-tagged 4E-BP1 in 20 mM Hepes, pH 7.2, 1 mM DTT, 50 mM NaCl, 10 mM MnCl2, 0.02 mg/mL BSA, 0.01% CHAPS, 50 mM β-glycerophosphate. Following an incubation of 120 minutes at ambient temperature, 20 μL of the reaction volume was transferred to a Ni-Chelate-coated 384-well plate. The binding step of the 4E-BP1 protein proceeded for 60 minutes, followed by washing 4 times each with 50 μL of Tris-buffered saline solution (TBS). Anti-phospho-4E-BP1 rabbit-IgG (20 μL, 1:5000) in 5% BSA-TBST (0.2% Tween-20 in TBS) was added and further incubated for 60 minutes. Incubation with a secondary HRP-tagged anti-IgG was similarly performed after washing off the primary antibody (4 washes of 50 μL). Following the final wash step with TBST, 20 μL of SuperSignal ELISA Femto (Pierce Biotechnology) was added and the luminescence measured using an EnVision plate reader.

[2] = target: PI3Kα (Homo sapiens, UniProt P42336); assay: PI3K Biochemical Assays (ATP consumption, luciferase-luciferin chemiluminescence); settings: PI3Kα 1.5 nM, ATP 1 μM, PIP2 10 μM; percent of ATP consumed
PI3Kα, sequence (P42336 whole entry): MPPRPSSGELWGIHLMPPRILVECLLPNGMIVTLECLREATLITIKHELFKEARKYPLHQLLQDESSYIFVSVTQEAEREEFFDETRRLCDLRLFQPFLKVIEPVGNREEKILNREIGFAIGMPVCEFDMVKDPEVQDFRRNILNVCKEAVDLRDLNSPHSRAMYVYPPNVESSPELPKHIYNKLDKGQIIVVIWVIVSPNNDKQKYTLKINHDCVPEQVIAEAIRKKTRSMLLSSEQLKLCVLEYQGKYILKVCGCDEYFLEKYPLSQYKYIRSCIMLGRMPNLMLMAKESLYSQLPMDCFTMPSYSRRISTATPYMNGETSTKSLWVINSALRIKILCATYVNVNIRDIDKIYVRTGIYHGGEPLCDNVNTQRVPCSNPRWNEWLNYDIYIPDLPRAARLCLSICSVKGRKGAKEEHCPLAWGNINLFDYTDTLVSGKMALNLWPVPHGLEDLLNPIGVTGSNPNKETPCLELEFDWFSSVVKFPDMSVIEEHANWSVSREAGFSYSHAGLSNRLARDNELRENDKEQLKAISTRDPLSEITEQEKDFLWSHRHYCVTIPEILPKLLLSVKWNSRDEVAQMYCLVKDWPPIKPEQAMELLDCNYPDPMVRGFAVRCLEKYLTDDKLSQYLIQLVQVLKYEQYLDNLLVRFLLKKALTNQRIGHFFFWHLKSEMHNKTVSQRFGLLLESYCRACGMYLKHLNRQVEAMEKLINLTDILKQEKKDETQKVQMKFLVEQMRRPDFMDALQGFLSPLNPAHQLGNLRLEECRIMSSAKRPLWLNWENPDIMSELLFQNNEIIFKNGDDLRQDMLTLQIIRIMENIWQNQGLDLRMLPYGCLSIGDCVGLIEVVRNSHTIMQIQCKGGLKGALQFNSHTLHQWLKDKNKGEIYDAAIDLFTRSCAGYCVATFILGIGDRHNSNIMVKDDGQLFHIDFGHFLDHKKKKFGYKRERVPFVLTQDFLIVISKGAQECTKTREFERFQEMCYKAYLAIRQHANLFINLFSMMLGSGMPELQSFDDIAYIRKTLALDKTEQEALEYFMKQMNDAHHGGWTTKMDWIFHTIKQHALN
PI3Kα, sequence (P27986 whole entry partner): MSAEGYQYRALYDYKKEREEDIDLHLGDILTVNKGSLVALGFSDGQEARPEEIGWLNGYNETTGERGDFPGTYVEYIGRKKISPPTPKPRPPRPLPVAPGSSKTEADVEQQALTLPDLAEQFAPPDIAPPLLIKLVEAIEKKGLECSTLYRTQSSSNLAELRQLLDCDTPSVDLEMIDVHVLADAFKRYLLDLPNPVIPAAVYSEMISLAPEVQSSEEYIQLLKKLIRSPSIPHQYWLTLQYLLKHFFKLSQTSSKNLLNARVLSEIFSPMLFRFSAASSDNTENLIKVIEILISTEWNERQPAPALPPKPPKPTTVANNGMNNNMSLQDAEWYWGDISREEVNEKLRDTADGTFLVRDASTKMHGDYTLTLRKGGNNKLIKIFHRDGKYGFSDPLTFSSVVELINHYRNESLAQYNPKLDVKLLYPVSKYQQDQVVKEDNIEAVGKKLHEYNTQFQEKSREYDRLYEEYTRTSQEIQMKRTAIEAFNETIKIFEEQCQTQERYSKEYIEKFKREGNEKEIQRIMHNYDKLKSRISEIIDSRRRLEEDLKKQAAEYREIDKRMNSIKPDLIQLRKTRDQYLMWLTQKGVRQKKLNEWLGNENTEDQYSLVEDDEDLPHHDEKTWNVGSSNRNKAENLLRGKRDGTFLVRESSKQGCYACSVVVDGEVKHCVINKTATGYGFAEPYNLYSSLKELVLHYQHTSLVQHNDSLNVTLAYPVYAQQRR
Procedure: PI3Kα activity is measured as the percent of ATP consumed following the kinase reaction using luciferase-luciferin-coupled chemiluminescence. Reactions were conducted in 384-well white, medium binding microtiter plates (Greiner). Kinase reactions were initiated by combining test compounds, ATP, substrate (PIP2), and kinase in a 20 μL volume in a buffer solution. The standard PI3Kalpha assay buffer is composed 50 mM Tris, pH 7.5, 1 mM EGTA, 10 mM MgCl2, 1 mM DTT and 0.03% CHAPS. The standard assay concentrations for enzyme, ATP, and substrate are 1.5 nM, 1 μM, and 10 μM, respectively. The reaction mixture was incubated at ambient temperature for approximately 2 h. Following the kinase reaction, a 10 μL aliquot of luciferase-luciferin mix (Promega Kinase-Glo) was added and the chemiluminescence signal measured using a Victor2 plate reader (Perkin Elmer). Total ATP consumption was limited to 40-60% and IC50 values of control compounds correlate well with literature references. Substituting PI3Kα with PI3KIβ, […], or […], the inhibitory activity of the compounds for the other isoforms of I3K were measured.

Row | IC50 [1] [nM] | IC50 [2] [nM] | SMILES
1 | 50 to 250 | ≤ 75 | COC(=O)Nc1nc2ccc(-c3ccc4c(c3)CN(C(=O)N3CCC(=O)CC3c3cccc(F)c3)CCO4)cc2[nH]1 (centres unmarked) [Compound 11, methyl [6-(4-{[2-(3-fluorophenyl)-4-oxopiperidin-1-yl]carbonyl}-2,3,4,5-tetrahydro-1,4-benzoxazepin-7-yl)-1H-benzimidazol-2-yl]carbamate]
2 | 50 to 250 | ≤ 75 | COC(=O)Nc1nc2ccc(-c3ccc4c(c3)CN(C(=O)N3CCCCC3c3ccc(F)cc3)CCO4)cc2[nH]1 (centres unmarked) [Compound 12, methyl [6-(4-{[2-(4-fluorophenyl)piperidin-1-yl]carbonyl}-2,3,4,5-tetrahydro-1,4-benzoxazepin-7-yl)-1H-benzimidazol-2-yl]carbamate]
3 | 50 to 250 | 75 to 200 | COC(=O)Nc1nc2ccc(-c3ccc4c(c3)CN(C(=O)N3CCC(CF)CC3)CCO4)cc2[nH]1 [Compound 13, methyl [6-(4-{[4-(fluoromethyl)piperidin-1-yl]carbonyl}-2,3,4,5-tetrahydro-1,4-benzoxazepin-7-yl)-1H-benzimidazol-2-yl]carbamate]
4 | 50 to 250 | ≤ 75 | COC(=O)Nc1nc2ccc(-c3ccc4c(c3)CN(C(=O)N3CCC(=O)CC3c3ccc(F)cc3)CCO4)cc2[nH]1 (centres unmarked) [Compound 14, methyl [6-(4-{[2-(4-fluorophenyl)-4-oxopiperidin-1-yl]carbonyl}-2,3,4,5-tetrahydro-1,4-benzoxazepin-7-yl)-1H-benzimidazol-2-yl]carbamate]
5 | 50 to 250 | 200 to 500 | COC(=O)Nc1nc2ccc(-c3ccc4c(c3)CN(C(=O)N3CCC(O)(CF)CC3)CCO4)cc2[nH]1 [Compound 15, methyl [6-(4-{[4-(fluoromethyl)-4-hydroxypiperidin-1-yl]carbonyl}-2,3,4,5-tetrahydro-1,4-benzoxazepin-7-yl)-1H-benzimidazol-2-yl]carbamate]
6 | 50 to 250 | ≤ 75 | COC(=O)Nc1nc2ccc(-c3ccc4c(c3)CN(C(=O)N3CCC(=O)CC3c3ccc(F)c(F)c3)CCO4)cc2[nH]1 (centres unmarked) [Compound 16, methyl [6-(4-{[2-(3,4-difluorophenyl)-4-oxopiperidin-1-yl]carbonyl}-2,3,4,5-tetrahydro-1,4-benzoxazepin-7-yl)-1H-benzimidazol-2-yl]carbamate]
7 | 50 to 250 | ≤ 75 | COC(=O)Nc1nc2ccc(-c3ccc4c(c3)CN(C(=O)N3CCC(O)(c5cccc(C(F)(F)F)c5)CC3)CCO4)cc2[nH]1 [Compound 18, methyl {6-[4-({4-hydroxy-4-[3-(trifluoromethyl)phenyl]piperidin-1-yl}carbonyl)-2,3,4,5-tetrahydro-1,4-benzoxazepin-7-yl]-1H-benzimidazol-2-yl}carbamate]
8 | 50 to 250 | 200 to 500 | COC(=O)Nc1nc2ccc(-c3ccc4c(c3)CN(C(=O)N3CCC(C(F)F)CC3)CCO4)cc2[nH]1 [Compound 19, methyl [6-(4-{[4-(difluoromethyl)piperidin-1-yl]carbonyl}-2,3,4,5-tetrahydro-1,4-benzoxazepin-7-yl)-1H-benzimidazol-2-yl]carbamate]
9 | ≤ 50 | ≤ 75 | COC(=O)Nc1nc2ccc(-c3ccc4c(c3)CN(C(=O)N3[C@@H]5CC[C@H]3C[C@](O)(C(F)(F)F)C5)CCO4)cc2[nH]1 [Compound 20, methyl [6-(4-{[3-(endo)-hydroxy-3-(trifluoromethyl)-8-azabicyclo[3.2.1]oct-8-yl]carbonyl}-2,3,4,5-tetrahydro-1,4-benzoxazepin-7-yl)-1H-benzimidazol-2-yl]carbamate]
10 | 50 to 250 | 75 to 200 | COC(=O)Nc1nc2ccc(-c3ccc4c(c3)CN(C(=O)N3CCC(C#N)CC3)CCO4)cc2[nH]1 [Compound 21, methyl (6-{4-[(4-cyanopiperidin-1-yl)carbonyl]-2,3,4,5-tetrahydro-1,4-benzoxazepin-7-yl}-1H-benzimidazol-2-yl)carbamate]
11 | ≤ 50 | 200 to 500 | COC(=O)Nc1nc2ccc(-c3ccc4c(c3)CN(C(=O)N3CCC(O)(C(F)(F)F)CC3)CCO4)cc2[nH]1 [Compound 22, methyl [6-(4-{[4-hydroxy-4-(trifluoromethyl)piperidin-1-yl]carbonyl}-2,3,4,5-tetrahydro-1,4-benzoxazepin-7-yl)-1H-benzimidazol-2-yl]carbamate]
12 | ≤ 50 | 75 to 200 | CC1(O)CCN(C(=O)N2CCOc3ccc(-c4ccc5nc(N)[nH]c5c4)cc3C2)CC1 [Compound 23, 1-{[7-(2-amino-1H-benzimidazol-6-yl)-2,3-dihydro-1,4-benzoxazepin-4(5H)-yl]carbonyl}-4-methylpiperidin-4-ol]
13 | 250 to 700 | 200 to 500 | COC(=O)Nc1nc2ccc(-c3ccc4c(c3)CN(C(=O)N3CCC(C)(O)CC3)CCO4)cc2[nH]1 [Compound 24, methyl (6-{4-[(4-hydroxy-4-methylpiperidin-1-yl)carbonyl]-2,3,4,5-tetrahydro-1,4-benzoxazepin-7-yl}-1H-benzimidazol-2-yl)carbamate]
14 | 50 to 250 | 200 to 500 | COC(=O)Nc1nc2ccc(-c3ccc4c(c3)CN(C(=O)N3C5CCC3CC(=O)C5)CCO4)cc2[nH]1 [Compound 25, methyl (6-{4-[(3-oxo-8-azabicyclo[3.2.1]oct-8-yl)carbonyl]-2,3,4,5-tetrahydro-1,4-benzoxazepin-7-yl}-1H-benzimidazol-2-yl)carbamate]
15 | ≤ 50 | 200 to 500 | Nc1nc2ccc(-c3ccc4c(c3)CN(C(=O)N3CCC(CF)CC3)CCO4)cc2[nH]1 [Compound 26, 6-(4-{[4-(fluoromethyl)piperidin-1-yl]carbonyl}-2,3,4,5-tetrahydro-1,4-benzoxazepin-7-yl)-1H-benzimidazol-2-amine]
16 | ≤ 50 | 75 to 200 | Nc1nc2ccc(-c3ccc4c(c3)CN(C(=O)N3CCC(=O)CC3c3ccc(F)c(F)c3)CCO4)cc2[nH]1 (centres unmarked) [Compound 27, 1-{[7-(2-amino-1H-benzimidazol-6-yl)-2,3-dihydro-1,4-benzoxazepin-4(5H)-yl]carbonyl}-2-(3,4-difluorophenyl)piperidin-4-one]
17 | ≤ 50 | 75 to 200 | Nc1nc2ccc(-c3ccc4c(c3)CN(C(=O)N3CCC(=O)CC3c3cccc(F)c3)CCO4)cc2[nH]1 (centres unmarked) [Compound 28, 1-{[7-(2-amino-1H-benzimidazol-6-yl)-2,3-dihydro-1,4-benzoxazepin-4(5H)-yl]carbonyl}-2-(3-fluorophenyl)piperidin-4-one]
18 | ≤ 50 | 75 to 200 | CCNc1nc2ccc(-c3ccc4c(c3)CN(C(=O)N3CCC(CF)CC3)CCO4)cc2[nH]1 [Compound 29, N-ethyl-6-(4-{[4-(fluoromethyl)piperidin-1-yl]carbonyl}-2,3,4,5-tetrahydro-1,4-benzoxazepin-7-yl)-1H-benzimidazol-2-amine]
19 | ≤ 50 | ≤ 75 | CCNc1nc2ccc(-c3ccc4c(c3)CN(C(=O)N3CCC(=O)CC3c3cccc(F)c3)CCO4)cc2[nH]1 (centres unmarked) [Compound 30, 1-({7-[2-(ethylamino)-1H-benzimidazol-6-yl]-2,3-dihydro-1,4-benzoxazepin-4(5H)-yl}carbonyl)-2-(3-fluorophenyl)piperidin-4-one]
20 | ≤ 50 | 200 to 500 | O=C1CCN(C(=O)N2CCOc3ccc(-c4ccc5[nH]c(NCC(F)(F)F)nc5c4)cc3C2)C(c2cccc(F)c2)C1 (centres unmarked) [Compound 31, 2-(3-fluorophenyl)-1-{[7-{2-[(2,2,2-trifluoroethyl)amino]-1H-benzimidazol-5-yl}-2,3-dihydro-1,4-benzoxazepin-4(5H)-yl]carbonyl}piperidin-4-one]
21 | ≤ 50 | ≤ 75 | O=C1CCN(C(=O)N2CCOc3ccc(-c4ccc5[nH]c(NCCF)nc5c4)cc3C2)C(c2cccc(F)c2)C1 (centres unmarked) [Compound 32, 1-{[7-{2-[(2-fluoroethyl)amino]-1H-benzimidazol-5-yl}-2,3-dihydro-1,4-benzoxazepin-4(5H)-yl]carbonyl}-2-(3-fluorophenyl)piperidin-4-one]
22 | ≤ 50 | 200 to 500 | CCNc1nc2ccc(-c3ccc4c(c3)CN(C(=O)N3CCC(C(C)(F)F)CC3)CCO4)cc2[nH]1 [Compound 33, 6-(4-{[4-(1,1-difluoroethyl)piperidin-1-yl]carbonyl}-2,3,4,5-tetrahydro-1,4-benzoxazepin-7-yl)-N-ethyl-1H-benzimidazol-2-amine]
